Assay results published in the supplement of paper PMC10307832.

What was measured:
Test in all cases: relative viability (nuclei count vs DMSO), 5 days (fraction); higher = more cells survive
[1] = test system: NCI-H596
How it was run: (§1)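 Each reported value is a median over duplicate plates. It expresses relative viability: treated-well nuclei count divided by vehicle-well nuclei count. Lung cancer cell lines in 1536-well plates were dosed by pin tool a day after seeding, alone with one drug or with a fixed anchor-drug dose plus five library-drug doses (not always all listed) in √10 steps, and nuclei were counted after 5 days.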

[2] = test system: PC-3 [JPC-3]
How it was run: as §1

[3] = test system: NCI-H1915
How it was run: as §1

[4] = test system: NCI-H2087
How it was run: as §1

[5] = test system: 201T
How it was run: as §1

[6] = test system: NCI-H650
How it was run: as §1

[7] = test system: BEN
How it was run: as §1

[8] = test system: LCLC-97TM1
How it was run: as §1

[9] = test system: NCI-H441
How it was run: as §1

[10] = test system: NCI-H460
How it was run: as §1

[11] = test system: NCI-H1944
How it was run: as §1

[12] = test system: NCI-H727
How it was run: as §1

[13] = test system: A-427
How it was run: as §1

[14] = test system: ABC-1
How it was run: as §1

[15] = test system: NCI-H1651
How it was run: as §1

[16] = test system: H3255
How it was run: as §1

[17] = test system: LC-2-ad
How it was run: as §1

[18] = test system: CAL-12T
How it was run: as §1

CC(=O)O[C@@]12CO[C@@H]1C[C@H](O)[C@@]1(C)C(=O)[C@H](O)C3=C(C)[C@@H](OC(=O)[C@H](O)[C@@H](NC(=O)OC(C)(C)C)c4ccccc4)C[C@@](O)([C@@H](OC(=O)c4ccccc4)[C@H]21)C3(C)C [Docetaxel] + NC(=O)Nc1cc(-c2cccc(F)c2)sc1C(=O)N[C@H]1CCCNC1 [AZD7762] (partner 0.2 µM)
relative viability ([1]; first compound 0.0002 µM): 1.07
relative viability ([1]; first compound 0.000632 µM): 0.934
relative viability ([1]; first compound 0.002 µM): 1
relative viability ([1]; first compound 0.006325 µM): 0.581
relative viability ([1]; first compound 0.02 µM): 0.397
relative viability ([2]; first compound 0.0002 µM): 0.761
relative viability ([2]; first compound 0.000632 µM): 0.69
relative viability ([2]; first compound 0.002 µM): 0.441
relative viability ([2]; first compound 0.006325 µM): 0.267
relative viability ([2]; first compound 0.02 µM): 0.169
relative viability ([3]; first compound 0.0002 µM): 0.638
relative viability ([3]; first compound 0.000632 µM): 0.703
relative viability ([3]; first compound 0.002 µM): 0.527
relative viability ([3]; first compound 0.006325 µM): 0.182
relative viability ([3]; first compound 0.02 µM): 0.107
relative viability ([4]; first compound 0.0002 µM): 1.23
relative viability ([4]; first compound 0.000632 µM): 0.822
relative viability ([4]; first compound 0.002 µM): 0.203
relative viability ([4]; first compound 0.006325 µM): 0.236
relative viability ([4]; first compound 0.02 µM): 0.108
relative viability ([5]; first compound 0.0002 µM): 0.528
relative viability ([5]; first compound 0.000632 µM): 0.623
relative viability ([5]; first compound 0.002 µM): 0.481
relative viability ([5]; first compound 0.006325 µM): 0.388
relative viability ([5]; first compound 0.02 µM): 0.246
relative viability ([6]; first compound 0.0002 µM): 0.946
relative viability ([6]; first compound 0.000632 µM): 0.485
relative viability ([6]; first compound 0.002 µM): 0.363
relative viability ([6]; first compound 0.006325 µM): 0.28
relative viability ([6]; first compound 0.02 µM): 0.239
relative viability ([7]; first compound 0.0002 µM): 0.553
relative viability ([7]; first compound 0.000632 µM): 0.822
relative viability ([7]; first compound 0.002 µM): 0.483
relative viability ([7]; first compound 0.006325 µM): 0.412
relative viability ([7]; first compound 0.02 µM): 0.307
relative viability ([8]; first compound 0.0002 µM): 0.194
relative viability ([8]; first compound 0.000632 µM): 0.221
relative viability ([8]; first compound 0.002 µM): 0.078
relative viability ([8]; first compound 0.006325 µM): 0.0825
relative viability ([8]; first compound 0.02 µM): 0.0475
relative viability ([9]; first compound 0.0002 µM): 1.06
relative viability ([9]; first compound 0.000632 µM): 1.15
relative viability ([9]; first compound 0.002 µM): 0.263
relative viability ([9]; first compound 0.006325 µM): 0.221
relative viability ([9]; first compound 0.02 µM): 0.167
relative viability ([10]; first compound 0.0002 µM): 0.565
relative viability ([10]; first compound 0.000632 µM): 0.575
relative viability ([10]; first compound 0.002 µM): 0.167
relative viability ([10]; first compound 0.006325 µM): 0.0571
relative viability ([10]; first compound 0.02 µM): 0.0404
relative viability ([11]; first compound 0.0002 µM): 0.667
relative viability ([11]; first compound 0.000632 µM): 0.476
relative viability ([11]; first compound 0.002 µM): 0.339
relative viability ([11]; first compound 0.006325 µM): 0.25
relative viability ([11]; first compound 0.02 µM): 0.102
relative viability ([12]; first compound 0.0002 µM): 0.482
relative viability ([12]; first compound 0.000632 µM): 0.537
relative viability ([12]; first compound 0.002 µM): 0.503
relative viability ([12]; first compound 0.006325 µM): 0.452
relative viability ([12]; first compound 0.02 µM): 0.381
relative viability ([13]; first compound 0.0002 µM): 0.729
relative viability ([13]; first compound 0.000632 µM): 0.768
relative viability ([13]; first compound 0.002 µM): 0.461
relative viability ([13]; first compound 0.006325 µM): 0.266
relative viability ([13]; first compound 0.02 µM): 0.222
relative viability ([14]; first compound 0.0002 µM): 0.826
relative viability ([14]; first compound 0.000632 µM): 0.795
relative viability ([14]; first compound 0.002 µM): 0.619
relative viability ([14]; first compound 0.006325 µM): 0.297
relative viability ([14]; first compound 0.02 µM): 0.222
relative viability ([15]; first compound 0.0002 µM): 0.345
relative viability ([15]; first compound 0.000632 µM): 0.507
relative viability ([15]; first compound 0.002 µM): 0.394
relative viability ([15]; first compound 0.006325 µM): 0.13
relative viability ([16]; first compound 0.0002 µM): 0.749
relative viability ([16]; first compound 0.000632 µM): 0.859
relative viability ([16]; first compound 0.002 µM): 0.446
relative viability ([16]; first compound 0.006325 µM): 0.288
relative viability ([16]; first compound 0.02 µM): 0.288
relative viability ([17]; first compound 0.0002 µM): 0.8
relative viability ([17]; first compound 0.000632 µM): 0.353
relative viability ([17]; first compound 0.002 µM): 0.224
relative viability ([17]; first compound 0.006325 µM): 0.274
relative viability ([17]; first compound 0.02 µM): 0.178
relative viability ([18]; first compound 0.0002 µM): 0.595
relative viability ([18]; first compound 0.000632 µM): 0.452
relative viability ([18]; first compound 0.002 µM): 0.491
relative viability ([18]; first compound 0.02 µM): 0.176
